Test results taken from patent US20240384268A1, “Oligonucleotides” (Hudson Institute of Medical Research, priority 2021, published 2024).
In the oligonucleotide strings, read from the 5' end, every base follows the letter of its sugar. An asterisk marks phosphorothioate; unmarked linkages are phosphodiester. Other units and linkages are bracketed, terminal groups are in braces. A string of capitals states the bases alone. d = 2'-deoxy (DNA); m = 2'-O-methyl

Molecular target: T1, human TLR9 (Homo sapiens, UniProt Q9NR96)
T1 construct: HA; host or cells: 293XL-hTLR9-HA (HEK293)
T1 sequence (Q9NR96 26-1032): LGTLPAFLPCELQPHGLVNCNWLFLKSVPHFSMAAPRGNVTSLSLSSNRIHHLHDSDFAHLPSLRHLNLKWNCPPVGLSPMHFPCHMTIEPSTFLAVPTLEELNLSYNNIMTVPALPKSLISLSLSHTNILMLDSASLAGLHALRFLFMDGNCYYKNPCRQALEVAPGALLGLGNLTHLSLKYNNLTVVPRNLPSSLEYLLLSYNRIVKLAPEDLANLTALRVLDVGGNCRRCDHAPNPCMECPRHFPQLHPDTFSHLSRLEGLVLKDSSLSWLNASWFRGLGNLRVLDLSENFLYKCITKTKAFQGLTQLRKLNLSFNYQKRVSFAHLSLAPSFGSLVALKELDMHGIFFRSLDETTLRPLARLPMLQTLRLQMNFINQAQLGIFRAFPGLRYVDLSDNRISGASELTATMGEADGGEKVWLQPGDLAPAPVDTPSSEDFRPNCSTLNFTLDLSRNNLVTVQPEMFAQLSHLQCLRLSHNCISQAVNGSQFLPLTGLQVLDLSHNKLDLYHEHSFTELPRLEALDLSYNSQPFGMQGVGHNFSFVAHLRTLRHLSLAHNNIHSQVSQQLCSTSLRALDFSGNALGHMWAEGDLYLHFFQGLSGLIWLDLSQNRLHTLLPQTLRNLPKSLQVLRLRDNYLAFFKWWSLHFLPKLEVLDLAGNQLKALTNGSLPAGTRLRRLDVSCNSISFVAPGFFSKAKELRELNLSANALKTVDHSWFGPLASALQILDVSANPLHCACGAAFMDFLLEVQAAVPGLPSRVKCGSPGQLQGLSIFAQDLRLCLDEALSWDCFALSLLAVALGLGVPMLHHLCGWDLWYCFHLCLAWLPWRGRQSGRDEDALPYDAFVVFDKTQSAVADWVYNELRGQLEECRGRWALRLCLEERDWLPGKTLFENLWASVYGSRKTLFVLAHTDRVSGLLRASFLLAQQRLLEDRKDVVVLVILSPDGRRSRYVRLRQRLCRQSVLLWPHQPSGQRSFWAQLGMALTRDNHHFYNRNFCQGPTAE
Test: HEK-TLR9 NF-κB-luciferase reporter, ODN2006 stimulation
Type: cell-based
Details: for TLR9 100 nM: MOE-modified ASO at 100 nM; for TLR9 100 nM / TLR9 500 nM: averaged NF-κB-Luciferase relative to ODN2006 condition; for TLR9 500 nM: MOE-modified ASO at 500 nM; for TLR9-500 nM: averaged NF-κB-Luciferase relative to ODN2006: HEK-TLR9, 500 nM ASO 45 min, then 200 nM ODN2006 overnight, percentage of ODN2006 only

Substance	TLR9 100 nM	TLR9 500 nM	TLR9-500 nM: averaged NF-κB-Luciferase relative to ODN2006 [%]
CGGAGGTCTTGGCTTCGTGG (antisense; 2'-MOE modified, pattern not given here) [MB21D1-525 MOE]	0.938	0.556	
mU*mG*mA*mU*mG*A*T*G*C*T*T*G*C*A*G*mG*mA*mG*mG*mC (mU*mG*mA*mU*mG*dA*dT*dG*dC*dT*dT*dG*dC*dA*dG*mG*mA*mG*mG*mC) [[LINC-PINT|283.1]			65.76
mA*mU*mG*mA*mC*A*T*T*T*C*G*T*G*G*C*mU*mC*mC*mU*mA (mA*mU*mG*mA*mC*dA*dT*dT*dT*dC*dG*dT*dG*dG*dC*mU*mC*mC*mU*mA) [[LINC-PINT]524.1]			107.12
GTCCAAGATCAGCAGTCTCA (antisense; 2'-MOE modified, pattern not given here) [CTNN2B-2341 MOE]	0.430	0.535	
mC*mC*mC*mU*mU*C*T*C*T*C*T*G*G*T*C*mC*mC*mA*mU*mC (mC*mC*mC*mU*mU*dC*dT*dC*dT*dC*dT*dG*dG*dT*dC*mC*mC*mA*mU*mC; antisense) [[LINC-PINT]114]			62.09
GGTTTTGGCTGGGATCAAGT (antisense; 2'-MOE modified, pattern not given here) [CAMSAP1-4697 MOE]	0.381	0.200	
mU*mU*mU*mG*mA*A*A*T*T*C*A*G*A*A*G*mA*mU*mU*mU*mG (mU*mU*mU*mG*mA*dA*dA*dT*dT*dC*dA*dG*dA*dA*dG*mA*mU*mU*mU*mG) [[LINC PINT|2690]			54.33
CGGCATCCACCACGTCGTCC (antisense; 2'-MOE modified, pattern not given here) [EGFR-3267 MOE]	0.449	0.373	
mG*mG*mU*mG*mG*C*C*A*C*A*G*G*C*A*A*mC*mG*mU*mC*mA (GGUGGCCACAGGCAACGUCA; antisense; sugars from the 5' end m5 d10 m5, all phosphorothioate, methylation of C not given here) [[CDKN2B-AS1]2196]			97.04
mC*mC*mU*mU*mC*T*C*T*C*T*G*GT*C*C*mC*mA*mU*mC*mC (CCUUCTCTCTGGTCCCAUCC; antisense; chemistry not fully specified) [[LINC-PINT]113]			55.47
mC*mU*mU*mC*mU*C*T*C*T*G*G*T*C*C*C*mA*mU*mC*mC*mC (mC*mU*mU*mC*mU*dC*dT*dC*dT*dG*dG*dT*dC*dC*dC*mA*mU*mC*mC*mC) [[LINC-PINT]112]			64.35
mC*mA*mC*mC*mC*T*T*C*T*C*T*C*T*G*G*mU*mC*mC*mC*mA (CACCCTTCTCTCTGGUCCCA; antisense; sugars from the 5' end m5 d10 m5, all phosphorothioate, methylation of C not given here) [[LINC-PINT]116]			102.85
mU*mU*mC*mU*mC*T*C*T*G*G*T*C*C*C*A*mU*mC*mC*mC*mU (mU*mU*mC*mU*mC*dT*dC*dT*dG*dG*dT*dC*dC*dC*dA*mU*mC*mC*mC*mU; antisense) [[LINC-PINT]111]			98.01
mU*mC*mU*mC*mC*A*T*G*T*C*C*C*A*G*G*mC*mC*mU*mC*mC (mU*mC*mU*mC*mC*dA*dT*dG*dT*dC*dC*dC*dA*dG*dG*mC*mC*mU*mC*mC; antisense) [[CDKN2B-AS1]2230]			118.93
mA*mA*mA*mG*mA*T*T*A*T*C*T*T*C*T*T*mU*mU*mA*mA*mU (mA*mA*mA*mG*mA*dT*dT*dA*dT*dC*dT*dT*dC*dT*dT*mU*mU*mA*mA*mU) [[CDKN2B-AS1]2132]			63.14
mG*mU*mU*mC*mA*G*T*C*A*G*A*T*C*G*C*mU*mG*mG*mG*mA (mG*mU*mU*mC*mA*dG*dT*dC*dA*dG*dA*dT*dC*dG*dC*mU*mG*mG*mG*mA) [[LINC-PINT]412 KL]			77.50
TTTGCACACTTCGTACCCAA (antisense; 2'-MOE modified, pattern not given here) [CAMSAP1-4916 MOE]	0.735	0.514	
mA*mA*mU*mU*mU*A*A*A*G*C*A*T*G*A*A*mU*mA*mU*mU*mA (mA*mA*mU*mU*mU*dA*dA*dA*dG*dC*dA*dT*dG*dA*dA*mU*mA*mU*mU*mA) [[CDKN2B-AS1]645]			53.26
